Laboratory results reported in patent US12209102B2, “Heterocyclic compounds and uses thereof” (Kumquat Biosciences Inc., priority 2022, dated 2025).
pIC50: −log10 of the molar value.

Assays:
K-Ras G12D = target: T1, K-Ras G12D (Homo sapiens, UniProt P01116, G12D); assay: HTRF resonance energy transfer assay, K-Ras G12D / SOS1 interaction; assay type: biochemical; conditions: HTRF assay of Example 5; read-out: IC50 against K-Ras G12D
T1 construct: made in house; host or cells: E. coli BL21 (DE3)
Procedure, shortened: (§1)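 Compounds, tested in duplicate at 10 μM down to 0.01 μM, were read after about 10 min or more by HTRF as the 665/620 nm emission ratio (337 nm excitation) to derive IC50. This ratio reports FRET between an anti-GST-Eu donor on GST-K-Ras (wild-type or mutant) and an anti-6His-XL665 acceptor on His-hSOS1. Buffer: ~5 mM HEPES pH 7.4, 150 mM NaCl, 1 mM DTT, 0.05% BSA, 0.0025% Igepal.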

K-Ras G12S = target: T2, K-Ras G12S (Homo sapiens, UniProt P01116, G12S); assay: HTRF resonance energy transfer assay, K-Ras G12S / SOS1 interaction; assay type: biochemical; conditions: HTRF assay of Example 5; read-out: IC50 against K-Ras G12S
T2 construct: made in house; host or cells: E. coli BL21 (DE3)
Procedure, shortened: as §1

K-Ras G12V = target: T3, K-Ras G12V (Homo sapiens, UniProt P01116, G12V); assay: HTRF resonance energy transfer assay, K-Ras G12V / SOS1 interaction; assay type: biochemical; conditions: HTRF assay of Example 5; read-out: IC50 against K-Ras G12V
T3 construct: made in house; host or cells: E. coli BL21 (DE3)
Procedure, shortened: as §1

K-Ras WT = target: T4, K-Ras WT (Homo sapiens, UniProt P01116); assay: HTRF resonance energy transfer assay, K-Ras WT / SOS1 interaction; assay type: biochemical; conditions: HTRF assay of Example 5; read-out: IC50 against K-Ras WT
T4 construct: made in house; host or cells: E. coli BL21 (DE3)
Procedure, shortened: as §1

GP2D cells = assay: Ras cellular assay, growth of cells with K-Ras G12D mutation (CellTiter-Glo); assay type: cell-based; conditions: cell growth, Example 9, G12D mutation, read-out: IC50 against GP2D cells
SW620 cells = assay: Ras cellular assay, growth of cells with K-Ras G12V mutation (CellTiter-Glo); assay type: cell-based; conditions: Homo sapiens, SW-620; cell growth, Example 9, G12V mutation; read-out: IC50 against SW620 cells
Procedure, shortened: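 IC50 values came from a four-parameter fit of CellTiter-Glo viability, read roughly 6 days after dosing with e.g. a 10-point threefold dilution series. G12V-mutant SW620 cells (e.g. 800 per well) had been plated the previous day in RPMI-1640/10% heat-inactivated FBS, on tissue culture-treated or ultra-low attachment plates.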

T1 sequence (P01116 1-188 isoform P01116-2 G12D): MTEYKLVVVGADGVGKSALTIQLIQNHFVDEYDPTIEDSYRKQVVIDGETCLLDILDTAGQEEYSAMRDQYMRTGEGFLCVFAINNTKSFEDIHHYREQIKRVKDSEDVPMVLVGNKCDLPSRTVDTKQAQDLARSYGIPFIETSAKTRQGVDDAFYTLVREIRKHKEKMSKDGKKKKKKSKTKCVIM
T2 sequence (P01116 1-188 isoform P01116-2 G12S): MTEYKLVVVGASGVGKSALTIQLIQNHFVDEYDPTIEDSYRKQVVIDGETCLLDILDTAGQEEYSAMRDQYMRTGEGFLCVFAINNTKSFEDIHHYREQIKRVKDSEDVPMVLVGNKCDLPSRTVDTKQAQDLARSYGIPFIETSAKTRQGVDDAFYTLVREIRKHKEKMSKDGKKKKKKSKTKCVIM
T4 sequence (P01116 1-188 isoform P01116-2): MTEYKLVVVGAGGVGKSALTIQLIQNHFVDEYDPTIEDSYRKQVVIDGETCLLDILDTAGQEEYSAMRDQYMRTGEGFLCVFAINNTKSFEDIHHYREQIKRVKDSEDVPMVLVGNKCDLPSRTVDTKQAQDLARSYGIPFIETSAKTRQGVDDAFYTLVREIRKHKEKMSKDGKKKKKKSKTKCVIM
T3 sequence (P01116 1-188 isoform P01116-2 G12V): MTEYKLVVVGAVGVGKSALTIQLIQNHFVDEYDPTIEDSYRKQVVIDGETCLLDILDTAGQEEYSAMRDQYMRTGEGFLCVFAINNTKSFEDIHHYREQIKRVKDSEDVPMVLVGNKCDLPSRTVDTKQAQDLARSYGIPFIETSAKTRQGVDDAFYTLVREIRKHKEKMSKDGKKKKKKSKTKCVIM

Question: C[C@H](O)[C@H]1[C@@H](C)Oc2c(Cl)c(-c3ccc(F)c4sc(N)c(C#N)c34)c(F)c3nc(OC[C@@]45CCCN4C[C@H](F)C5)nc(c23)N1CC(F)F [Compound 911, 2-amino-4-((5S,6R)-8-chloro-4-(2,2-difluoroethyl)-10-fluoro-2-(((2R,7aS)-2-fluorotetrahydro-1H-pyrrolizin-7a(5H)-yl)methoxy)-5-((S)-1-hydroxyethyl)-6-methyl-5,6-dihydro-4H-[1,4]oxazepino[5,6,7-de]quinazolin-9-yl)-7-fluorobenzo[b]thiophene-3-carbonitrile] was tested. Which pIC50 (K-Ras G12D) did it give?
Answer: > 7.00

Question: And the pIC50 (K-Ras G12S)?
Answer: > 7.00

Question: And the pIC50 (K-Ras G12V)?
Answer: > 7.00

Question: And the pIC50 (K-Ras WT)?
Answer: > 7.00

Question: And the pIC50 (GP2D cells)?
Answer: > 6.30

Question: What about the pIC50 (SW620 cells) of the same compound?
Answer: > 5.30

Question: How did the pIC50 (K-Ras G12D) turn out when N#Cc1c(N)sc2c(F)ccc(-c3c(Cl)c4c5c(nc(OC[C@@]67CCCN6C[C@H](F)C7)nc5c3F)N(CC(F)F)[C@@H](C(O)C(F)(F)F)CO4)c12 (stereo partly drawn) [Compound 919, 2-amino-4-((5R)-8-chloro-4-(2,2-difluoroethyl)-10-fluoro-2-(((2R,7aS)-2-fluorotetrahydro-1H-pyrrolizin-7a(5H)-yl)methoxy)-5-(2,2,2-trifluoro-1-hydroxyethyl)-5,6-dihydro-4H-[1,4]oxazepino[5,6,7-de]quinazolin-9-yl)-7-fluorobenzo[b]thiophene-3-carbonitrile] was run?
Answer: > 7.00

Question: What about the pIC50 (K-Ras G12S) of the same compound?
Answer: > 7.00

Question: And the pIC50 (K-Ras G12V)?
Answer: > 7.00

Question: What about the pIC50 (K-Ras WT) of the same compound?
Answer: > 7.00

Question: What about the pIC50 (GP2D cells) of the same compound?
Answer: > 6.30

Question: What about the pIC50 (SW620 cells) of the same compound?
Answer: > 5.30

Question: How did the pIC50 (K-Ras G12D) turn out when N#Cc1c(N)sc2c(F)ccc(-c3c(Cl)c4c5c(nc(OC[C@@]67CCCN6C[C@H](F)C7)nc5c3F)N(CC(F)F)C(C3(F)CC3)CO4)c12 (stereo partly drawn) [Compound 943, 2-amino-4-(8-chloro-4-(2,2-difluoroethyl)-10-fluoro-5-(1-fluorocyclopropyl)-2-(((2R,7aS)-2-fluorotetrahydro-1H-pyrrolizin-7a(5H)-yl)methoxy)-5,6-dihydro-4H-[1,4]oxazepino[5,6,7-de]quinazolin-9-yl)-7-fluorobenzo[b]thiophene-3-carbonitrile] was run?
Answer: > 7.00

Question: And the pIC50 (K-Ras G12S)?
Answer: > 7.00

Question: What about the pIC50 (K-Ras G12V) of the same compound?
Answer: > 7.00

Question: And the pIC50 (K-Ras WT)?
Answer: > 7.00

Question: And the pIC50 (GP2D cells)?
Answer: > 6.30

Question: And the pIC50 (SW620 cells)?
Answer: > 5.30

Question: With N#Cc1c(N)sc2c(F)ccc(-c3c(Cl)c4c5c(nc(OC[C@@]67CCCN6C[C@H](F)C7)nc5c3F)N(CCC(F)F)[C@@H](C3(O)CC3)CO4)c12 [Compound 986, 2-amino-4-((R)-8-chloro-4-(3,3-difluoropropyl)-10-fluoro-2-(((2R,7aS)-2-fluorotetrahydro-1H-pyrrolizin-7a(5H)-yl)methoxy)-5-(1-hydroxycyclopropyl)-5,6-dihydro-4H-[1,4]oxazepino[5,6,7-de]quinazolin-9-yl)-7-fluorobenzo[b]thiophene-3-carbonitrile] as the compound, how does the pIC50 (K-Ras G12D) read?
Answer: > 7.00

Question: And the pIC50 (K-Ras G12S)?
Answer: > 7.00

Question: What about the pIC50 (K-Ras G12V) of the same compound?
Answer: > 7.00

Question: What about the pIC50 (K-Ras WT) of the same compound?
Answer: > 7.00

Question: And the pIC50 (GP2D cells)?
Answer: > 6.30

Question: What about the pIC50 (SW620 cells) of the same compound?
Answer: > 5.30

Question: What does the source list for C[C@@H]1C[C@@H](N2CCOc3c(Cl)c(-c4ccc(F)c5sc(N)c(C#N)c45)c(F)c4nc(OC[C@@]56CCCN5C[C@H](F)C6)nc2c34)CN1 [Compound 1016, 2-amino-4-(8-chloro-10-fluoro-2-(((2R,7aS)-2-fluorotetrahydro-1H-pyrrolizin-7a(5H)-yl)methoxy)-4-((3R,5R)-5-methylpyrrolidin-3-yl)-5,6-dihydro-4H-[1,4]oxazepino[5,6,7-de]quinazolin-9-yl)-7-fluorobenzo[b]thiophene-3-carbonitrile]?
Answer: pIC50 (K-Ras G12D): > 7.00; pIC50 (K-Ras G12S): > 7.00; pIC50 (K-Ras G12V): > 7.00; pIC50 (K-Ras WT): > 7.00; pIC50 (GP2D cells): > 6.30; pIC50 (SW620 cells): > 5.30

Question: How did the pIC50 (K-Ras G12D) turn out when N#Cc1c(N)sc2c(F)ccc(-c3c(Cl)c4c5c(nc(OC[C@@]67CCCN6C[C@H](F)C7)nc5c3F)N(CC(F)F)[C@@H](C3CC3)CO4)c12 [Compound 1022, 2-amino-4-((S)-8-chloro-5-cyclopropyl-4-(2,2-difluoroethyl)-10-fluoro-2-(((2R,7aS)-2-fluorotetrahydro-1H-pyrrolizin-7a(5H)-yl)methoxy)-5,6-dihydro-4H-[1,4]oxazepino[5,6,7-de]quinazolin-9-yl)-7-fluorobenzo[b]thiophene-3-carbonitrile] was run?
Answer: > 7.00

Question: What about the pIC50 (K-Ras G12S) of the same compound?
Answer: > 7.00

Question: What about the pIC50 (K-Ras G12V) of the same compound?
Answer: > 7.00

Question: What about the pIC50 (K-Ras WT) of the same compound?
Answer: > 7.00

Question: What about the pIC50 (GP2D cells) of the same compound?
Answer: > 6.30

Question: What about the pIC50 (SW620 cells) of the same compound?
Answer: > 5.30

Question: What does the source list for N#Cc1c(N)sc2c(F)ccc(-c3c(Cl)c4c5c(nc(OC[C@@]67CCCN6C[C@H](F)C7)nc5c3F)N(C3CCOC3)[C@@H](C3(O)CC3)CO4)c12 (stereo partly drawn) [Compound 1031, 2-amino-4-((5R)-8-chloro-10-fluoro-2-(((2R,7aS)-2-fluorotetrahydro-1H-pyrrolizin-7a(5H)-yl)methoxy)-5-(1-hydroxycyclopropyl)-4-(tetrahydrofuran-3-yl)-5,6-dihydro-4H-[1,4]oxazepino[5,6,7-de]quinazolin-9-yl)-7-fluorobenzo[b]thiophene-3-carbonitrile]?
Answer: pIC50 (K-Ras G12D): > 7.00; pIC50 (K-Ras G12S): > 7.00; pIC50 (K-Ras G12V): > 7.00; pIC50 (K-Ras WT): > 7.00; pIC50 (GP2D cells): > 6.30; pIC50 (SW620 cells): > 5.30

Question: N#Cc1c(N)sc2c(F)ccc(-c3c(Cl)c4c5c(nc(OC[C@@]67CCCN6C[C@H](F)C7)nc5c3F)N(CCC(F)F)[C@@H](C(F)F)CO4)c12 [Compound 1035, 2-amino-4-((R)-8-chloro-5-(difluoromethyl)-4-(3,3-difluoropropyl)-10-fluoro-2-(((2R,7aS)-2-fluorotetrahydro-1H-pyrrolizin-7a(5H)-yl)methoxy)-5,6-dihydro-4H-[1,4]oxazepino[5,6,7-de]quinazolin-9-yl)-7-fluorobenzo[b]thiophene-3-carbonitrile] was tested. Which pIC50 (K-Ras G12D) did it give?
Answer: > 7.00

Question: What about the pIC50 (K-Ras G12S) of the same compound?
Answer: > 7.00

Question: What about the pIC50 (K-Ras G12V) of the same compound?
Answer: > 7.00

Question: And the pIC50 (K-Ras WT)?
Answer: > 7.00

Question: And the pIC50 (GP2D cells)?
Answer: > 6.30

Question: What about the pIC50 (SW620 cells) of the same compound?
Answer: > 5.30

Question: What does the source list for CC(C)(O)[C@H]1COc2c(Cl)c(-c3ccc(F)c4sc(N)c(C#N)c34)c(F)c3nc(OC[C@@]45CCCN4C[C@H](F)C5)nc(c23)N1C1CCOC1 (stereo partly drawn) [Compound 1041, 2-amino-4-((5R)-8-chloro-10-fluoro-2-(((2R,7aS)-2-fluorotetrahydro-1H-pyrrolizin-7a(5H)-yl)methoxy)-5-(2-hydroxypropan-2-yl)-4-(tetrahydrofuran-3-yl)-5,6-dihydro-4H-[1,4]oxazepino[5,6,7-de]quinazolin-9-yl)-7-fluorobenzo[b]thiophene-3-carbonitrile]?
Answer: pIC50 (K-Ras G12D): > 7.00; pIC50 (K-Ras G12S): > 7.00; pIC50 (K-Ras G12V): > 7.00; pIC50 (K-Ras WT): > 7.00; pIC50 (GP2D cells): > 6.30; pIC50 (SW620 cells): > 5.30

Question: C[C@H](O)[C@H]1[C@H](C)Oc2c(Cl)c(-c3ccc(F)c4sc(N)c(C#N)c34)c(F)c3nc(OC[C@@]45CCCN4C[C@H](F)C5)nc(c23)N1CC(F)F [Compound 1042, 2-amino-4-((5S,6S)-8-chloro-4-(2,2-difluoroethyl)-10-fluoro-2-(((2R,7aS)-2-fluorotetrahydro-1H-pyrrolizin-7a(5H)-yl)methoxy)-5-((S)-1-hydroxyethyl)-6-methyl-5,6-dihydro-4H-[1,4]oxazepino[5,6,7-de]quinazolin-9-yl)-7-fluorobenzo[b]thiophene-3-carbonitrile] was tested. Which pIC50 (K-Ras G12D) did it give?
Answer: > 7.00

Question: What about the pIC50 (K-Ras G12S) of the same compound?
Answer: > 7.00

Question: What about the pIC50 (K-Ras G12V) of the same compound?
Answer: > 7.00

Question: And the pIC50 (K-Ras WT)?
Answer: > 7.00

Question: And the pIC50 (GP2D cells)?
Answer: > 6.30

Question: And the pIC50 (SW620 cells)?
Answer: > 5.30
